Measurements reported in ChEMBL document CHEMBL3817834, “Scaffold morphing leading to evolution of 2,4-diaminoquinolines and aminopyrazolopyrimidines as inhibitors of the ATP synthesis pathway” (Medchemcomm, 2016).
In brackets after ≈: the same amount, converted by molar mass. Activity calls are given as the source filed them. The rule behind the calls is not given here.

Assays:
[1] = system: Mycobacterium tuberculosis; assay: Ratio of MBC for Mycobacterium tuberculosis under hypoxic condition to MIC for Mycobacterium tuberculosis under aerobic condition; format: functional
[2] = system: Mycobacterium tuberculosis; assay: Bactericidal activity against Mycobacterium tuberculosis under hypoxic condition after 7 days by microdilution method; format: functional; details: 168 h
[3] = system: Mycobacterium tuberculosis; assay: Antimycobacterial activity against drug sensitive Mycobacterium tuberculosis Erdman by turbidometric method; format: functional; details: Erdman = ATCC 35801
[4] = Inhibition of ATP synthase in Mycobacterium smegmatis inverted membrane vesicles assessed as reduction in oxidative phosphorylation of ADP incubated for 60 mins in presence of NADH by luciferin/luciferase coupled […] assay; parameters: species or system Mycolicibacterium smegmatis
[5] = system: Mycobacterium tuberculosis; assay: Antimycobacterial activity against drug sensitive Mycobacterium tuberculosis ATCC 27294 by turbidometric method; format: functional
[6] = system: Mycobacterium tuberculosis; assay: Antimycobacterial activity against drug sensitive Mycobacterium tuberculosis isolate 25618 by turbidometric method; format: functional
[7] = system: Mycobacterium tuberculosis; assay: Antimycobacterial activity against drug sensitive Mycobacterium tuberculosis Harlingen by turbidometric method; format: functional
[8] = system: Mycobacterium tuberculosis; assay: Antimycobacterial activity against Mycobacterium tuberculosis under aerobic condition after 7 days by microdilution method; format: functional; details: 168 h
[9] = system: Mycobacterium tuberculosis; assay: Bactericidal activity against Mycobacterium tuberculosis under aerobic condition after 7 days by microdilution method; format: functional; details: 168 h
[10] = Ratio of IC50 for ATP synthase in Mycobacterium smegmatis inverted membrane vesicles to IC50 for Mycobacterium bovis BCG
[11] = system: Mycobacterium tuberculosis; assay: Antimycobacterial activity against drug sensitive Mycobacterium tuberculosis Beijing (E-47/94) by turbidometric method; format: functional
[12] = Selectivity index, ratio of IC50 for bovine heart mitochondrial ATP synthase to IC50 for ATP synthase in Mycobacterium smegmatis inverted membrane vesicles
[13] = Inhibition of bovine heart mitochondrial ATP synthase assessed as reduction in oxidative phosphorylation of ADP in presence of NADH by ATP bioluminescence assay; parameters: species or system Bos taurus
[14] = system: Mycobacterium tuberculosis; assay: Antimycobacterial activity against Mycobacterium tuberculosis H37Rv infected in Balb/c mouse assessed as log reduction in CFU in lungs at 10 mg/kg, po qd dosed 6 days per week for 2 weeks; format: functional
[15] = system: Mycobacterium tuberculosis; assay: Antimycobacterial activity against Mycobacterium tuberculosis H37Rv infected in Balb/c mouse assessed as reduction in CFU in lungs at 100 to 200 mg/kg, po qd dosed 6 days per week for 2 weeks; format: functional, organism-based
Mus musculus = assay: T>MIC in Mycobacterium tuberculosis H37Rv infected Balb/c mouse at 100 to 200 mg/kg, po qd dosed 6 days per week for 2 weeks by LC-MS analysis
[16] = system: Mycobacterium tuberculosis; assay: Bactericidal activity against Mycobacterium tuberculosis under replicating condition assessed as reduction in colony forming units at 3.125 to 200 uM by time kill kinetic study; format: functional, organism-based; details: TDE = time-dependent effect

COc1nc2ccc(Br)cc2cc1[C@@H](c1ccccc1)[C@@](O)(CCN(C)C)c1cccc2ccccc12 [BEDAQUILINE]
Ratio [1]: 15
MBC [2]: 4 µM (≈ 2.22 µg/mL)
MIC80 [3]: < 2 µM
IC50 [4]: 0.005 µM
MIC80 [5]: 0.2 µM (≈ 0.111 µg/mL)
MIC80 [6]: < 2 µM
MIC80 [7]: < 2 µM
MIC [8]: 0.2 µM (≈ 0.111 µg/mL)
MBC [9]: 1.6 µM (≈ 0.889 µg/mL)
Ratio IC50 [10]: 100
MIC80 [11]: < 2 µM

CN[C@@H]1[C@H](O[C@H]2[C@H](O[C@H]3[C@H](O)[C@@H](O)[C@H](N=C(N)N)[C@@H](O)[C@@H]3N=C(N)N)O[C@@H](C)[C@]2(O)C=O)O[C@@H](CO)[C@H](O)[C@H]1O [STREPTOMYCIN]
MIC80 [3]: 0.3 µM (≈ 0.174 µg/mL)
MIC80 [5]: 0.3 µM (≈ 0.174 µg/mL)
MIC80 [6]: 0.3 µM (≈ 0.174 µg/mL)
MIC80 [7]: 0.3 µM (≈ 0.174 µg/mL)
MIC80 [11]: 0.3 µM (≈ 0.174 µg/mL)

CN(C)CCOc1ncc(Nc2cc(C(F)(F)F)nc3cc(-c4ccc(F)cc4)nn23)cc1F
IC50 [4]: 0.5 µM
MIC [8]: 12.5 µM (≈ 5.98 µg/mL)
Ratio IC50 [12]: 19
Ratio IC50 [10]: 100

CO[C@H]1/C=C/O[C@@]2(C)Oc3c(C)c(O)c4c(O)c(c(/C=N/N5CCN(C)CC5)c(O)c4c3C2=O)NC(=O)/C(C)=C\C=C\[C@H](C)[C@H](O)[C@@H](C)[C@@H](O)[C@@H](C)[C@H](OC(C)=O)[C@@H]1C [RIFAMPIN]
MIC80 [3]: 0.04 µM (≈ 0.0329 µg/mL)
MIC80 [5]: 0.04 µM (≈ 0.0329 µg/mL)
MIC80 [6]: 0.04 µM (≈ 0.0329 µg/mL)
MIC80 [7]: 0.04 µM (≈ 0.0329 µg/mL)
MIC80 [11]: 0.04 µM (≈ 0.0329 µg/mL)

COc1cc2nc(N3CCC(c4ccccc4Cl)C3)cc(Nc3cnc(OCC4CCCN4C)c(F)c3)c2cc1OC (stereo not given)
Ratio [1]: 15
MBC [2]: 50 µM (≈ 29.6 µg/mL)
IC50 [4]: 0.06 µM
MIC [8]: 6.2 µM (≈ 3.67 µg/mL)
Ratio IC50 [12]: 44
MBC [9]: 50 µM (≈ 29.6 µg/mL)

CC(Nc1nc(N2CCCCC2)nc2ccccc12)c1ccccc1 (stereo not given)
IC50 [13]: 2.6 µM
IC50 [4]: 2.1 µM
MIC [8]: 25 µM (≈ 8.31 µg/mL)
Ratio IC50 [12]: 2.6

N#CC(C#N)=NNc1cccc(Cl)c1 [CARBONYL CYANIDE M-CHLOROPHENYLHYDRAZONE]
IC50 [4]: 4.8 µM

COc1cc2nc(NCCC3CCOCC3)nc(Nc3ncc(C(C)C)s3)c2cc1OC
Ratio [1]: 15
MBC [2]: 50 µM (≈ 22.9 µg/mL)
IC50 [4]: 0.1 µM
MIC [8]: 6.2 µM (≈ 2.84 µg/mL)
MBC [9]: 25 µM (≈ 11.4 µg/mL)

CC1COc2c(N3CCN(C)CC3)c(F)cc3c(=O)c(C(=O)O)cn1c23 (stereo not given) [OFLOXACIN]
MIC80 [3]: 0.7 µM (≈ 0.253 µg/mL)
MIC80 [5]: 0.7 µM (≈ 0.253 µg/mL)
MIC80 [6]: 0.7 µM (≈ 0.253 µg/mL)
MIC80 [7]: 0.7 µM (≈ 0.253 µg/mL)
MIC80 [11]: 0.7 µM (≈ 0.253 µg/mL)

CCOc1ncc(Nc2cc(NCCC3CCOCC3)nc3ccnn23)cc1F
IC50 [4]: 21 µM
MIC [8]: > 50 µM
Ratio IC50 [12]: > 1.2

NNC(=O)c1ccncc1 [ISONIAZID]
Activity [14]: >2 deltalog10CFU
MIC80 [3]: 0.2 µM (≈ 0.0274 µg/mL)
MIC80 [5]: 0.2 µM (≈ 0.0274 µg/mL)
MIC80 [6]: 0.2 µM (≈ 0.0274 µg/mL)
MIC80 [7]: 0.2 µM (≈ 0.0274 µg/mL)
MIC80 [11]: 0.2 µM (≈ 0.0274 µg/mL)

COc1cc2nc(NCCc3cccnc3)nc(Nc3cnc(OC)c(C)c3)c2cc1OC
IC50 [4]: 0.1 µM
MIC [8]: > 200 µM
Ratio IC50 [12]: 96

Cn1nc(Nc2nc(NCCC3CCOCC3)nc3ccccc23)cc1C(C)(C)C
IC50 [4]: 1.7 µM
MIC [8]: 6.2 µM (≈ 2.53 µg/mL)
Ratio IC50 [12]: 4.5

CC(Nc1nc(N2CCCC2)nc2ccccc12)c1ccccc1 (stereo not given)
IC50 [4]: 2.5 µM
MIC [8]: 50 µM (≈ 15.9 µg/mL)
Ratio IC50 [12]: < 0.04

CN(C)CCOc1ncc(Nc2cc(-c3ccccc3)nc3cc(-c4ccc(F)cc4)[nH]c23)cc1F
MIC80 [3]: 3.1 µM (≈ 1.51 µg/mL)
IC50 [4]: 0.1 µM
MIC80 [5]: 3.1 µM (≈ 1.51 µg/mL)
MIC80 [6]: 3.1 µM (≈ 1.51 µg/mL)
MIC80 [7]: 3.1 µM (≈ 1.51 µg/mL)
MIC [8]: 0.8 µM (≈ 0.388 µg/mL)
Ratio IC50 [12]: 13
Ratio IC50 [10]: 100
MIC80 [11]: 3.1 µM (≈ 1.51 µg/mL)

COc1cc2nc(N3CCC(c4ccccc4Cl)C3)cc(Nc3cnc(NCCN(C)C)c(F)c3)c2cc1OC (stereo not given)
IC50 [4]: 0.1 µM
MIC [8]: 1.6 µM (≈ 0.904 µg/mL)
Ratio IC50 [12]: 51

CN(C)CCOc1ncc(Nc2cc(-c3ccccc3)nc3cc(-c4ccc(F)cc4)nn23)cc1F
Ratio [1]: 15
MBC [2]: 100 µM (≈ 48.7 µg/mL)
MIC80 [3]: 6.3 µM (≈ 3.07 µg/mL)
IC50 [4]: 0.45 µM
MIC80 [5]: 6.3 µM (≈ 3.07 µg/mL)
MIC80 [6]: 6.3 µM (≈ 3.07 µg/mL)
MIC80 [7]: 6.3 µM (≈ 3.07 µg/mL)
Activity [15]: Active
MIC [8]: 6.2 µM (≈ 3.02 µg/mL)
T>MIC (Mus musculus): 24 h
Ratio IC50 [12]: 20
Activity [16]: tde
MBC [9]: 28 µM (≈ 13.6 µg/mL)
Ratio IC50 [10]: 100
MIC80 [11]: 6.3 µM (≈ 3.07 µg/mL)

COc1cc2nc(NCCC3CCOCC3)cc(Nc3cnc(OCCN(C)C)c(F)c3)c2cc1OC
IC50 [4]: 3.7 µM
MIC [8]: 200 µM (≈ 103 µg/mL)
Ratio IC50 [12]: 1

CC[C@@H](CO)NCCN[C@@H](CC)CO [ETHAMBUTOL]
MIC80 [3]: 9.8 µM (≈ 2 µg/mL)
MIC80 [5]: 9.8 µM (≈ 2 µg/mL)
MIC80 [6]: 9.8 µM (≈ 2 µg/mL)
MIC80 [7]: 9.8 µM (≈ 2 µg/mL)
MIC80 [11]: 9.8 µM (≈ 2 µg/mL)

CN(C)CCOc1ncc(Nc2cc(N3CCC(c4ccccc4Cl)C3)nc3cc(F)c(F)cc23)cc1F (stereo not given)
Ratio [1]: 15
MBC [2]: 50 µM (≈ 27.1 µg/mL)
MIC80 [3]: 3.1 µM (≈ 1.68 µg/mL)
IC50 [4]: 0.1 µM
MIC80 [5]: 3.1 µM (≈ 1.68 µg/mL)
MIC80 [6]: 3.1 µM (≈ 1.68 µg/mL)
MIC80 [7]: 3.1 µM (≈ 1.68 µg/mL)
Activity [15]: Active
MIC [8]: 3.1 µM (≈ 1.68 µg/mL)
Ratio IC50 [12]: 19
MBC [9]: 38 µM (≈ 20.6 µg/mL)
Ratio IC50 [10]: 100
MIC80 [11]: 3.1 µM (≈ 1.68 µg/mL)

COc1cc2nc(NCCC3CCOCC3)nc(Nc3cnc(OCCN(C)C)c(F)c3)c2cc1OC
IC50 [13]: > 25 µM
IC50 [4]: 0.9 µM
MIC [8]: 25 µM (≈ 12.9 µg/mL)
Ratio IC50 [12]: > 28

CCOc1ncc(Nc2nc(NCCC3CCOCC3)nc3cc(OC)c(OC)cc23)cc1F
Ratio [1]: 15
MBC [2]: 3 µM (≈ 1.41 µg/mL)
IC50 [4]: 0.6 µM
MIC [8]: 1.9 µM (≈ 0.896 µg/mL)
Ratio IC50 [12]: 2.3
MBC [9]: 19 µM (≈ 8.96 µg/mL)

COc1cc2nc(NCCC3CCOCC3)nc(Nc3cc(C(C)(C)C)n(C)n3)c2cc1OC
Ratio [1]: 15
MBC [2]: 50 µM (≈ 23.4 µg/mL)
IC50 [4]: 0.1 µM
MIC [8]: 6.2 µM (≈ 2.91 µg/mL)
Ratio IC50 [12]: 52
MBC [9]: 25 µM (≈ 11.7 µg/mL)
Ratio IC50 [10]: 100

COc1cc2nc(NCCC3CCOCC3)nc(Nc3cnc(OC)c(C)c3)c2cc1OC
Ratio [1]: 15
MBC [2]: 13 µM (≈ 5.9 µg/mL)
IC50 [4]: 0.4 µM
MIC [8]: 3.1 µM (≈ 1.41 µg/mL)
Ratio IC50 [12]: 10
MBC [9]: 25 µM (≈ 11.3 µg/mL)

COc1cc2nc(NCCc3ccccc3Cl)cc(Nc3cnc(OCCN(C)C)c(F)c3)c2cc1OC
IC50 [4]: 0.06 µM
MIC [8]: 3.1 µM (≈ 1.67 µg/mL)
Ratio IC50 [12]: 79

CCOc1ncc(Nc2nc(OCCC3CCOCC3)nc3cc(OC)c(OC)cc23)cc1F
IC50 [4]: 25 µM
MIC [8]: > 200 µM

CCOc1ncc(Nc2cc(NCCC3CCOCC3)nc3cc(OC)c(OC)cc23)cc1F
IC50 [4]: 0.8 µM
MIC [8]: 6.2 µM (≈ 2.92 µg/mL)
Ratio IC50 [12]: 3.2
Ratio IC50 [10]: 100

COc1cc2nc(N3CCC(c4ccccc4Cl)C3)cc(Nc3cnc(OCCN(C)C)c(F)c3)c2cc1OC (stereo not given)
MBC [2]: 200 µM (≈ 113 µg/mL)
MIC80 [3]: 3.1 µM (≈ 1.75 µg/mL)
IC50 [4]: 0.04 µM
MIC80 [5]: 6.3 µM (≈ 3.57 µg/mL)
MIC80 [6]: 3.1 µM (≈ 1.75 µg/mL)
MIC80 [7]: 3.1 µM (≈ 1.75 µg/mL)
MIC [8]: 1.6 µM (≈ 0.906 µg/mL)
Ratio IC50 [12]: 128
MBC [9]: 54 µM (≈ 30.6 µg/mL)
Ratio IC50 [10]: 100
MIC80 [11]: 3.1 µM (≈ 1.75 µg/mL)
